Assay results published in publication PMC7327804 (Data in Brief, 2020).

Legend:
[1] = biological target: T1, HA-hNTS2 receptor (Homo sapiens, UniProt O95665); test: Cell-surface ELISA for internalization of HA-hNTS2 receptor; type: cell-based; conditions: CHO-K1 cells transfected with HA-hNTS2, 1 µM ligand, 60 min at 37 °C in serum-free media, mean ± SEM of at least three independent determinations
T1 construct: expressed in transfected cells; host or cells: CHO-K1, transient transfection
Experimental: Receptor internalization using CHO-K1 cells transiently transfected with either HA-NTS1 or HA-NTS2 was carried out as previously described in details [9], [10], [11]. […] Cells were then washed with PBS and remaining ELISA steps form the detailed protocol were followed and unchanged. Absorbance was read at 450 nm and data were normalized according to the protocol.

[2] = tested on: NTS1 (p42/p44 MAPK phosphorylation); test: Western blot of p42/p44 (ERK1/2) phosphorylation in CHO-K1 cells stably expressing NTS1; type: cell-based, human; conditions: CHO-K1 cells stably expressing NTS1, serum-starved, 1 µM ligand, various time points
Experimental: (§1) Cells stably expressing NTS1 or NTS2 were grown for 48 h in complete culture media before being incubated for 16 h in serum-free media. Cells were then stimulated with either NT or JMV2009. Aspiration of media and addition of ice-cold PBS blocked any further protein phosphorylation. Cells were then lysed in RIPA containing proteases and phosphatases inhibitors before being centrifuged at 8000 g for 15 min.
(§2) Separation, transfer and blotting steps were performed as described previously using anti-phosphorylated ERK1/2 (Cell Signaling, cat# 4376S, lot 18, Danvers, MA; 1:1000, in TBS-T, 1% BSA) or anti-ERK1/2 (Cell Signaling, cat# 4695S, lot 28; 1:1000, in TBS-T, 1% BSA) as primary antibodies and HRP-conjugated anti-rabbit IgG from goat (Cell Signaling, cat# 7074S, lot 28; 1:5000, in TBS-T, 1% BSA) as secondary antibody for detection.

[3] = tested on: NTS2 (p42/p44 MAPK phosphorylation); test: Western blot of p42/p44 (ERK1/2) phosphorylation in 1321N1 cells stably expressing NTS2; type: cell-based, human; conditions: 1321N1 cells stably expressing NTS2, serum-starved, 1 µM ligand, various time points
Experimental: as §1, §2

T1 sequence (O95665 whole entry): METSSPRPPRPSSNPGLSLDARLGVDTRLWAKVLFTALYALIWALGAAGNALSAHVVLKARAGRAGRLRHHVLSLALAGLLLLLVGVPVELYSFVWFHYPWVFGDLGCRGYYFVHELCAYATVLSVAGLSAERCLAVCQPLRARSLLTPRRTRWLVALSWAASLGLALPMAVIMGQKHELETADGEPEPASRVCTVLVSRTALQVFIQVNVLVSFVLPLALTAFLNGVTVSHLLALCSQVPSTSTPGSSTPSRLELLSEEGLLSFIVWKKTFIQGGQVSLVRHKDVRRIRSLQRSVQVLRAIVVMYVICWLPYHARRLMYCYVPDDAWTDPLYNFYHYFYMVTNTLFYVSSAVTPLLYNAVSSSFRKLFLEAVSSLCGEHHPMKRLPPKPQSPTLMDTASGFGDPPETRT

## CC[C@H](C)[C@H](NC(=O)[C@H](Cc1ccc(O)cc1)NC(=O)[C@@H]1C[Si](C)(C)CN1C(=O)[C@H](CCCCN)NC(=O)[C@@H](N)CCCCN)C(=O)N[C@@H](CC(C)C)C(=O)O [JMV2009]
[1]
  NTS2 internalization: 15.1 ± 9.8%
[2]
  phosphorylation of p42/p44 proteins (ERK 1/2), NTS1 cells: time-dependent phosphorylation
[3]
  phosphorylation of p42/p44 proteins (ERK 1/2), NTS2 cells: time-dependent phosphorylation
